BindingDB's records for patent US11753403 (Pic Therapeutics, 2023)

molecular target: T1, Eukaryotic translation initiation factor 4E [28-217] (Homo sapiens, UniProt P06730); assay: Human eIF4E/4G2 Binding Assay
T1 construct: 28-217
Experimental: Test compounds (3.43 mM stock in DMSO) were diluted 2-fold in series in DMSO (10 concentration points). Compound solutions (1.2 μl/well) were added into black 384-well polypropylene microplates (Matrix, Thermal Scientific). Twenty-two microliters per well of Assay Buffer (50 mM NaPi, pH 6.5, 50 mM KCl, 1 mM DTT and 0.5 mg/ml gamma globulin) and eight microliters per well of 82.5 nM purified eIF4E in Assay Buffer were added. The samples were incubated at room temperature (20-23° C.) for 4 hours. Biotin labeled 4G2 peptide (Ac-Lys-Gln-Tyr-Asp-Arg-Glu-Phe-Leu-Leu-Asp-Phe-Gln-Phe-Met-Pro-Lys(Aha-Bio)-NH2, 1.75 μM stock in DMSO) was diluted to 0.14 μM in Assay Buffer (without DTT) and 5 μl/well was added. The samples were incubated at room temperature for 20 min. Five microliters per well of 6.4 nM Eu-streptavidin (Eu-SA, Perkin Elmer) and 80 nM Allophycocyanin (APC)-anti His antibody (Columbia Biosciences) in Assay Buffer (without DTT) were then added and the samples were incubated at room temperature for 20 min.

T1 sequence (P06730 28-217): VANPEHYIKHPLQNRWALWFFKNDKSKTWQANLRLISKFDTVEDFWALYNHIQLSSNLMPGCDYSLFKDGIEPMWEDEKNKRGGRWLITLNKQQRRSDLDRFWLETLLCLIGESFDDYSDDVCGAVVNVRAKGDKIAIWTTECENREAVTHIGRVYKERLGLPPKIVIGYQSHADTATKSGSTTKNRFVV

Q: How did the IC50 turn out when `O=C(O)CCN(Cc1ccccc1)c1nc(-c2ccc(Cl)c(Cl)c2)c(CN2CCCCC2)s1` [US11753403, Compound I-90] was run?
A: > 10 µM

Q: Which IC50 does the source give for `CC(C)Cc1sc(N(CCS(N)(=O)=O)Cc2ccccc2)nc1-c1ccc(Cl)c(Cl)c1` [US11753403, Compound I-98] here?
A: > 10 µM

Q: How did the IC50 turn out when `CC(C)Cc1sc(N(CCC(=O)O)Cc2ccccc2)nc1-c1ccc(-c2ccc(F)cc2)c(Cl)c1` [US11753403, Compound I-104] was run?
A: < 1 µM

Q: How did the IC50 turn out when `NC(=O)c1sc(N(CCC(=O)O)Cc2ccccc2)nc1-c1ccc(Cl)c(Cl)c1` [US11753403, Compound I-124] was run?
A: > 10 µM

Q: How did the IC50 turn out when `CC(C)Cc1sc(Nc2cccc(C(=O)O)c2)nc1-c1ccc(Cl)c(Cl)c1` [US11753403, Compound I-142] was run?
A: < 1 µM

Q: For `CC(C)Cc1sc(N(CCC(=O)NS(=O)(=O)CCCN)Cc2ccccc2)nc1-c1ccc(Cl)c(Cl)c1` [US11753403, Compound I-186], which IC50 is on record?
A: > 10 µM

Q: With `CC(C)Cc1sc(N(CCC(=O)NCCO)Cc2ccccc2)nc1-c1ccc(Cl)c(Cl)c1` [US11753403, Compound I-194] as the compound, how does the IC50 read?
A: > 10 µM

Q: With `CC(C)Cc1sc(NCC(Cc2cccc(C(=O)NCCN)c2)C(=O)O)nc1-c1ccc(Cl)c(Cl)c1` (stereo not given) [US11753403, Compound I-204] as the compound, how does the IC50 read?
A: > 10 µM

Q: Which IC50 does the source give for `CC(C)Cc1sc(-c2ccc(NC(=O)c3ccccc3)c(C(=O)O)c2)nc1-c1ccc(Cl)c(Cl)c1` [US11753403, Compound I-237] here?
A: < 1 µM

Q: Which IC50 does the source give for `CC(C)Cc1sc(N2CCN(C(=O)c3cccc(F)c3)C(C(=O)O)C2)nc1-c1ccc(Cl)c(Cl)c1` (stereo not given) [US11753403, Compound I-247] here?
A: < 1 µM
